Patent publication US4985558A, “1,4-dihydropyridine derivative” (Nikken Chemicals Co., Ltd., priority 1988, dated 1991)
Where “and” joins values, the source holds several entries; their conditions need not be identical. Equal entries are not always repeated.

Assays:
[1] = test system: vincristine (VCR)-resistant mouse leukemia (P388/VCR) cells; experiment: Antitumor agent potentiating effect in vincristine-resistant tumor bearing mouse (Example 11, i.p. 5 days); type: in vivo
Procedure: The potentiating effect of the antitumor agent (T/V) % was determined according to the formula shown below. Verapamil was employed as the positive Control compound. […] In the Tables, Compound 1 is the compound obtained in Example 1, Compound 2 that obtained in Example 2, Compound 3 that obtained in Example 3, Compound 4 that obtained in Example 4, and Compound 5 that obtained in Example 5. [formula]

rat rectum smooth muscle = experiment: Inhibitory effects on potassium contracture in rat rectum smooth muscle; type: cell-based; details: 5 min, K contraction 5.6 to 56.0 mM, read-out: Inhibition ratio; for inhibition at 0.1 µM: 10^-7 M; for inhibition at 0.01 µM: 10^-8 M
Procedure: Rat rectum (about 1.5 cm) was isolated and suspended in a Magnus tube. A Locke solution was employed as the nutrient solution, and a contraction of the intestinum rectum was caused by changing the potassium (K) concentration of this solution from 5.6 mmol (mM) to 56.0 mM. This contraction was a contraction through a membrane dependent Ca-channel mediated contraction based on depolarization by a K concentration change. The contraction was recorded by an FD-transducer and polygraph. The compounds of the present invention were permitted to act 5 minutes before changing the K concentration, and simultaneously with changing the K concentration. […] A judgement was made 5 minutes after changing the K concentration, and the difference in contraction before the concentration change was indicated as an inhibition % value. Verapamil and nicardipine were employed as the positive control compound .

ICR mice = experiment: acute toxicity test; details: mouse, in vivo;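 further: intraperitoneal dosing with deaths counted over 10 days of observation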
Procedure: Male 6-week-old ICR mice were divided into groups of 2 to 5 mice per group. […] The drugs to be tested were administered in varying amounts of 250 to 2000 mg/kg to 5 or 7 groups (a geometrical series of .cent.2), at a dose volume of 10 ml/kg. In the Table, the respective compounds have the same meanings as described above.

[2] = test system: spontaneously hypertensive rats (SHR); details: rat, in vivo, ip, 100 mg/kg
Procedure: The systolic blood pressure was measured by using spontaneously hypertensive rats (SHR), which are a model of hypertension when examine the hypotensive activities of the compounds of the present invention and the positive Control compound. The rats were warmed for 5 minutes in a warming box at 55° C., and their blood pressure then measured by a tail cuff plethysmograph. The compounds of the present invention were administered singly and intraperitoneally at a dose of 100 mg/kg and the positive Control compound was administered singly and intraperitoneally at a dose of 10 mg/kg. […] Blood pressure measurements were taken before administration and 60 minutes after administration. Nicardipine was employed as the positive Control compound.

[3] = compound 100 mg/kg i.p. + VCR 30 μg/kg i.p.
[4] = compound alone 100 mg/kg i.p., no VCR

Row | SMILES | Potentiating effect T/V [1, 3] [%] | Survival Days (Mean ± SD) [1, 3] [days] | Survival ratio T/C [1, 3] [%] | Survival Days (Mean ± SD) [1, 4] [days] | Survival ratio T/C [1, 4] [%] | inhibition at 0.1 µM (rat rectum smooth muscle) [%] | inhibition at 0.01 µM (rat rectum smooth muscle) [%] | Mortality (ICR mice) | Blood pressure change [2] [mmHg] | Systolic Blood Pressure 60 minutes after administration [2] [mmHg]
1 | CC1=C(C(=O)OCc2cccc(C)n2)C(C2=COCCO2)C(C(=O)OCc2cccc(C)n2)=C(C)N1 [Compound 2] | 130 | 13.7 ± 1.0 | 140 | 10.3 ± 0.5 | 105 | -2.1 | -5.6 | 0/4 and 1/5 and 0/5 | -15 | 204
2 | CC1=C(C(=O)OCCCc2cccnc2)C(C2=COCCO2)C(C(=O)OCCCc2cccnc2)=C(C)N1 [Compound 3, bis[3-(3-pyridyl)propyl]4-[2-(5,6-dihydro-p-dioxinyl)]-2,6-dimethyl-1,4-dihydropyridine-3,5-dicarboxylate] | 130 | 13.7 ± 1.5 | 140 | 10.3 ± 0.5 | 105 | -4.2 | -11.5 | 4/4 and 3/4 and 1/5 and 2/5 and 0/5 | – | –
